Results on 79 compounds are retold here after the METLIN SMRT retention time set (Domingo-Almenara et al. 2019).

A short description of the data set: gradient 5% acetonitrile 3 min, to 50% in 2 min, to 85% in 15 min, held 3 min, 100 µL/min. Particulars: column: Zorbax Extend-C18 2.1 x 50 mm; eluents: water / acetonitrile, 0.1% formic acid. The procedure, abridged: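 Standards, all pure, were combined into mixtures of ~100 molecules and run at 100 μL/min on a Zorbax Extend-C18 column (2.1 × 50 mm, 1.8 μm) with water and acetonitrile, each containing 0.1% formic acid. A coupled quadrupole time-of-flight mass spectrometer operated in positive and negative ionization mode. Retention time values come from computationally picked adduct peaks, each inspected manually.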
As to `CCn1nc(C)c(CCNC(=O)c2ccc3nc(Cc4ccccc4)oc3c2)c1C`, the RP-LC retention time is 720 s.

Consider `COc1ccc(NC(=O)c2nnc(CCCC(=O)NCCc3c[nH]c4ccc(C)cc34)s2)cc1`, for which the RP-LC retention time was 992 s.

As to `Cc1ccc(S(=O)(=O)N2C(=O)CCC2C(=O)NC2CCC(C)CC2)cc1` (centres undefined), the RP-LC retention time came out at 958 s.

The compound `CCOC(=O)C1C(=O)C(=O)N(C(C)C)C1C(=O)OCC` (centres undefined) showed an RP-LC retention time of 782 s.

The compound `CCc1noc(NC(C)=O)c1-c1ccc(C)c(S(=O)(=O)Nc2cccc(C#N)c2)c1` returned an RP-LC retention time of 776 s.

With `COc1ccc(-c2noc(C3CCCN3C(=O)Nc3cccc(C)c3C)n2)cc1` (centres undefined), the RP-LC retention time is 858 s.

Compound `Cc1cc2c(cc1S(=O)(=O)N1CCCC1C(=O)N1CCN(c3ccccc3)CC1)OC(C)C(=O)N2` (centres undefined) yielded an RP-LC retention time of 814 s.

Compound `CC(=O)Nc1ccc(SCc2ccccn2)nn1` gave an RP-LC retention time of 527 s.

Take `CN1C(=O)c2cccn2CC1C(=O)NC1CCCCCC1` (centres undefined): the RP-LC retention time was 731 s.

Regarding `Cc1cccc(N2CCN(C(=O)CCC3CCCN(C(=O)Nc4ccccc4)C3)CC2)c1C` (centres undefined), the RP-LC retention time stood at 1080 s.

`CCOc1ccccc1-c1noc(Cn2c(=O)n(Cc3ccc(OC)cc3)c(=O)c3sccc32)n1` yielded an RP-LC retention time of 1080 s.

The compound `COc1cc(NC(=O)c2ccc3cccc(O)c3n2)cc(OC)c1OC` registered an RP-LC retention time of 880 s.

Turning to `Cc1c(N2CCN(C(=O)c3cccc(F)c3)CC2)c(=O)n(C)c(=O)n1C`, the RP-LC retention time came out at 698 s.

On to `Nc1cc(C2CCN(C(=O)c3ccc(Cl)cc3)CC2)no1`, for which the RP-LC retention time amounted to 705 s.

In turn, `N#Cc1ccc(-n2cnc(C(=O)Nc3cccc(C(F)(F)F)c3)c2)cc1` displayed an RP-LC retention time of 889 s.

`COc1ccc(-c2noc(C3CCCN3C(=O)c3cccs3)n2)cc1` (centres undefined): the RP-LC retention time amounted to 924 s.

`O=C(Nc1ccc2c(c1)OCO2)c1cccc2c1CCN2C(=O)Nc1ccc(F)cc1` registered an RP-LC retention time of 929 s.

On to `CCSc1nc2ccc(NS(=O)(=O)c3cccc(Cl)c3)cc2s1`, for which the RP-LC retention time worked out at 1070 s.

The compound `COc1cccc(CCN2CC(=O)N(c3cccc(C)c3)[C@@H]3CS(=O)(=O)C[C@@H]32)c1` showed an RP-LC retention time of 849 s.

In turn, `OCCN1CCN(c2ncnc3c2cnn3-c2ccccc2Cl)CC1` displayed an RP-LC retention time of 592 s.

`CCc1ccc(-c2cn3cc(C(=O)N(CC)CC)ccc3n2)cc1`: the RP-LC retention time turned out to be 675 s.

In turn, `COc1cccc(N2CC(C)Cn3c2nc2c3c(=O)n(Cc3c(F)cccc3Cl)c(=O)n2C)c1` (centres undefined) showed an RP-LC retention time of 1080 s.

Consider `Cc1cc2[nH]c(C(=O)Nc3cccc(F)c3C)c(CN3CCOCC3)c2s1`, for which the RP-LC retention time amounted to 731 s.

In turn, `COc1cc2c(cc1C(=O)NCc1ccc3c(c1)CCCO3)OCCCO2` showed an RP-LC retention time of 920 s.

As to `N=C(CC(O)COc1ccccc1-c1ccccc1)N1CCCCC1` (centres undefined), the RP-LC retention time came to 793 s.

In turn, `COc1ccc(Cl)cc1NC(=O)Nc1ccc2c(c1)CCN2S(=O)(=O)c1ccccc1` showed an RP-LC retention time of 1090 s.

`COC(=O)c1cn(CC(=O)Nc2cc(F)ccc2F)c2nc(C)ccc2c1=O` had an RP-LC retention time of 727 s.

Regarding `COc1ccc(OC)c(S(=O)(=O)N2CCCN(S(=O)(=O)c3ccccc3)CCC(=O)NCC2)c1`, the RP-LC retention time was found to be 793 s.

In the case of `CCCC(=O)OCCCNc1nc(-c2ccc(Cl)cc2)nc2ccccc12`, the RP-LC retention time stood at 813 s.

The compound `CC(=O)c1ccc(N2CCN(S(=O)(=O)CCCOc3ccc(F)cc3)CC2)cc1` gave an RP-LC retention time of 753 s.

As to `CCn1c(=O)sc2cc(S(=O)(=O)N3CCC(C(=O)Nc4ccc5c(c4)OCO5)CC3)ccc21`, the RP-LC retention time was 863 s.

Regarding `Cc1ccc(CNC(=O)c2nnc(-c3ccc(S(=O)(=O)N4CCCC4)cc3)o2)o1`, the RP-LC retention time was determined as 852 s.

`O=C(O)c1nnn(-c2ccc3c(c2)CCC3)c1-c1ccncc1` showed an RP-LC retention time of 662 s.

Take `COCCC(=O)N1CCCn2nc(-c3cccc(OC)c3)cc2C1`: the RP-LC retention time is 644 s.

For `COCCN1CCn2cc(S(=O)(=O)Nc3ccc(C)cc3)cc2C1=O`, the RP-LC retention time is 715 s.

Take `O=S(=O)(c1ccc2nncn2c1)N(Cc1ccc(F)cc1)c1ccc(F)cc1`: the RP-LC retention time was determined as 861 s.

Turning to `COCCn1cc(C(=O)Nc2cccc(C(C)=O)c2)c2nn(-c3ccccc3)c(=O)c-2c1`, the RP-LC retention time was found to be 812 s.

Turning to `Cc1oc(C2CCN(S(=O)(=O)c3cccc(F)c3)CC2)nc1C(=O)N1CCCC1`, the RP-LC retention time worked out at 913 s.

`Cc1cc(C(=O)N2CCCCCC2c2nnc(C)o2)on1` (centres undefined) showed an RP-LC retention time of 669 s.

For the compound `CC(C)CC(=O)N1C[C@H](c2nc(-c3cccnc3)no2)[C@@H](C)C1`, the RP-LC retention time was 751 s.

For `Cc1ccc(CS(=O)(=O)N[C@@H]2CN(c3ncccn3)C[C@H]2CN(C)C)cc1`, the RP-LC retention time worked out at 619 s.

In the case of `O=C(Cc1csc2nc(-c3ccccc3)cn12)Nc1ccc(C(F)(F)F)cc1`, the RP-LC retention time amounted to 922 s.

`CCc1ccc(-n2nc(C)c3c(C(F)(F)F)cc(OCC(=O)N4CCCC4)nc32)cc1`: the RP-LC retention time turned out to be 1220 s.

The compound `CCc1cc(C(=O)Nc2cccc(C)c2)nc2ccnn12` yielded an RP-LC retention time of 995 s.

Compound `Cn1ccc(CN2CCN(Cc3cccc(F)c3)CC2)cc1=O` yielded an RP-LC retention time of 558 s.

Turning to `O=C(COc1ccc(F)c(F)c1)Nc1cnc(-c2cccnc2)nc1`, the RP-LC retention time came out at 717 s.

For the compound `O=C(Cn1ccc2c(SCc3ccc(F)cc3)nccc21)NCc1ccc2c(c1)OCO2`, the RP-LC retention time was determined as 744 s.

The compound `c1ccc(-c2nc(-c3ccnc(N4CCOCC4)c3)no2)nc1` displayed an RP-LC retention time of 665 s.

Compound `CCC1=C(c2ccc(C)cc2)S(=O)(=O)N=C1N1CCC(C(=O)NCc2ccco2)CC1` gave an RP-LC retention time of 793 s.

Turning to `Cc1ccc(NC(=O)N2CCc3nc(-c4ccc(F)cc4)ncc3C2)cc1C`, the RP-LC retention time turned out to be 1020 s.

The compound `Cc1onc(-c2ccccc2Cl)c1C(=O)N1CCC2(CC1)CC(=O)c1ccccc1O2` yielded an RP-LC retention time of 858 s.

`CCC(C)C(=O)N1CC(N(Cc2ccncc2)CC(C)C)C1` (centres undefined): the RP-LC retention time was 635 s.

With `CCc1ccc2nc(NC3=NCN(Cc4cccnc4)CN3)nc(C)c2c1`, the RP-LC retention time came to 608 s.

The compound `CCOc1cccc(CNC(=O)c2nc3cccnc3n(CC)c2=O)c1` yielded an RP-LC retention time of 548 s.

Regarding `Cc1cnc(-c2cccnc2)n1C1CCN(S(=O)(=O)c2cccnc2)C1` (centres undefined), the RP-LC retention time was determined as 575 s.

In the case of `CC1(C)C(=O)N(CC(=O)N2CCN(c3ccc(F)cc3)CC2)c2ccccc21`, the RP-LC retention time is 911 s.

In the case of `O=C(CSc1ccc(N2CCCC(C(=O)NC3CC3)C2)nn1)Nc1ccc(F)cc1Cl` (centres undefined), the RP-LC retention time is 675 s.

For the compound `O=C(CCc1csc2nc(C3CC3)cn12)Nc1nc2ccccc2s1`, the RP-LC retention time was determined as 594 s.

With `Cc1ccc(NC(=O)N2CCN(C(=O)N3C[C@H]4C[C@H](C3)[C@H]3CCCC(=O)N3C4)CC2)cc1C`, the RP-LC retention time is 698 s.

`CC(C)c1ccc(CNC(=O)C2CCc3nc(N4CCCC4)ncc3C2)cc1` (centres undefined) registered an RP-LC retention time of 648 s.

The compound `Cc1ccccc1N1CCN(S(=O)(=O)c2cc(-c3nnc(C4CCC4)o3)co2)CC1` gave an RP-LC retention time of 1140 s.

Consider `Cc1ccc(C(O)CN2CCN(c3ccccc3C)CC2)cc1` (centres undefined), for which the RP-LC retention time came out at 718 s.

For the compound `Cc1cc(=O)n(CC(=O)Nc2ccccc2F)c(-c2ccccc2)n1`, the RP-LC retention time was 1000 s.

`Cc1ccc(CN2CC(=O)N(c3cccc(Cl)c3)[C@@H]3CS(=O)(=O)C[C@@H]32)cc1` came in with an RP-LC retention time of 917 s.

The compound `COc1cc(NC(=O)C2CCN(c3c(C(=O)N4CCC(C)CC4)cnc4snc(C)c34)CC2)cc(OC)c1` came in with an RP-LC retention time of 1010 s.

Take `CCOc1ccc(S(=O)(=O)N2CCCC(C(=O)NCCO)C2)cc1C` (centres undefined): the RP-LC retention time is 714 s.

`CN(CC1CCOCC1)C(=O)Nc1cc(F)cc(F)c1` displayed an RP-LC retention time of 754 s.

The compound `O=C(NCc1ccccn1)c1ccc2c(c1)N(CC(=O)N1CCCC1)C(=O)CO2` returned an RP-LC retention time of 573 s.

Compound `CCCC(C(=O)O)c1c(C)nc2ccc(Cl)cc2c1-c1ccccc1` (centres undefined) gave an RP-LC retention time of 1010 s.

Regarding `NC(=O)Cc1ccc(NS(=O)(=O)/C=C/c2ccccc2)cc1`, the RP-LC retention time came out at 650 s.

The compound `O=C(Nc1ccc2c(c1)CCCN2S(=O)(=O)c1ccccc1)OCc1ccccc1` registered an RP-LC retention time of 949 s.

With `COc1cccc(-c2noc(Cn3c(=O)n(-c4ccc(Cl)cc4)c(=O)c4sccc43)n2)c1`, the RP-LC retention time came out at 1050 s.

In turn, `O=C(CSc1nnc(CNC(=O)c2ccc(F)cc2)o1)NCc1ccc2c(c1)OCO2` came in with an RP-LC retention time of 672 s.

As to `CC(C)n1cc(S(=O)(=O)NCc2cccc(F)c2)c2cccnc21`, the RP-LC retention time stood at 926 s.

In turn, `O=C(CSc1nc(-c2ccccc2Cl)ns1)Nc1nccs1` yielded an RP-LC retention time of 818 s.

Take `Cc1cc(C)c(S(=O)(=O)Nc2ccc3nc(N4CCN(C)CC4)cc(C(=O)O)c3c2)cc1C`: the RP-LC retention time is 611 s.

With `Cc1ccc(NC(=O)Cc2c(C)nn(-c3nc(-c4ccc(C)cc4)cs3)c2C)cc1`, the RP-LC retention time is 1270 s.

As to `O=C1/C(=C\c2ccc(O)c(O)c2)Oc2cc(O)ccc21`, the RP-LC retention time was 710 s.

In turn, `CCCNc1cc(N2CCC(CCC(=O)NCc3ccc(F)cc3F)CC2)ncn1` registered an RP-LC retention time of 694 s.
